How the values were obtained:
GCS in MDCKII cells = target: T1, GCS in MDCKII cells (Canis lupus familiaris, UniProt A0A8I3MXG6); assay: GCS inhibition in MDCKII cells (glucosylceramide content after 24 h); type: cell-based, canine; conditions: 24 hours exposure, glucosylceramide level
T1 construct: whole cellular lipids of wild type MDCKII cells were extracted; endogenous in cells; host or cells: wild type MDCKII cells
T1 sequence (A0A8I3MXG6 1-394): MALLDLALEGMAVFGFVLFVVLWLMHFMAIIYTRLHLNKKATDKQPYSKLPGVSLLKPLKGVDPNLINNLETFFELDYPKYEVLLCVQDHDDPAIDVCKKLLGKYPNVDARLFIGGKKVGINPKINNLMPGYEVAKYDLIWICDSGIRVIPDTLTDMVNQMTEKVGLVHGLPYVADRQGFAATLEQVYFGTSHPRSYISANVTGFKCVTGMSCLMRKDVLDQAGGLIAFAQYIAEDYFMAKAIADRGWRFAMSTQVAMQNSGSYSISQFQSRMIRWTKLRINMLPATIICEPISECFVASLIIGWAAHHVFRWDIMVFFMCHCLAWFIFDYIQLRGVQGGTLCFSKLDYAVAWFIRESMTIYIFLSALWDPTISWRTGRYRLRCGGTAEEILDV
Protocol: GCS Inhibition in MDCKII Cells (MDCKII IC50, Table 1)
MDCKII cells were routinely maintained in medium consisting of Opti-MEM/F12 (1:1), 5% FBS, 100 U/mL of penicillin, 100 µg/mL streptomycin and 200 mM L-glutamine. MDCKII cells were newly thawed from frozen ampules every two months.
Stock solutions of water-insoluble glycosphingolipid inhibitors (100 mM) were prepared by dissolving each inhibitor into 100% ethanol as previously described (3). The inhibitor-ethanol solutions then were diluted 50X into 2 mM delipidated bovine serum albumin-phosphate buffered saline solution to make water-soluble glycosphingolipid inhibitor-bovine serum albumin complexes. The inhibitor-bovine serum album complexes were sterile-filtered and stored at -20° C. Prior to use, portions of the inhibitor-bovine serum albumin complexes were further diluted with Opti-F12 to make treatment solutions. Equal amounts of bovine serum albumin and ethanol were added into the control cultures. Cells (5 x 10^5) were seeded into 10-cm culture dishes containing 10 ml of Opti-F12 with 5% FBS. After 24 hours, the medium was replaced with fresh serum-free Opti-F12 medium, and cells were exposed to candidate GCS inhibitors at concentrations of 0, 1, 3, 10, 30, 100 and 300 nM for 24 hours.
Following inhibitor treatment, whole cellular lipids of wild type MDCKII cells were extracted as previously described in detail (10). Briefly, cells were washed with ice-cold phosphate buffered saline, fixed by methanol, and collected with rubber scraper. Chloroform was then added to yield a theoretical ratio of chloroform:methanol:water at 1:2:0.8 (v/v/v) to form a mono-phase. Cell debris and proteins were removed by centrifugation at 2200 x g for 30 min. The supernatants were portioned by adding chloroform and 0.9% NaCl. The lower organic phases containing neutral glycosphingolipids lipids were washed with methanol and 0.9% NaCl, and subjected to base- and acid-hydrolysis (10). A portion of purified glycosphingolipids normalized to 100 nmol of total phospholipids was analyzed by high performance thin layer chromatography. The thin layer chromatography separations were processed twice. The plate pretreated with 1% sodium borate was first developed in a solvent system consisting of chloroform/methanol (98/2, v/v). After air drying, the plate was then developed in a solvent system containing chloroform/methanol/water (70/30/4, v/v/v). The levels of glucosylceramide were detected by charring with 8% cupric sulfate in 8% phosphoric acid, and quantified by densitometric scanning using ImageJ, NIH Image. Image data was analyzed, and the IC50 of each inhibitor was calculated using GraphPad Prism (version 5.03).

[1] = target: T2, glucosylceramide synthase (GCS) (Canis lupus familiaris, UniProt A0A8I3MXG6); assay: GCS inhibition in MDCK cell homogenates (Lysate IC50); type: biochemical, canine; conditions: MDCK cell homogenate
T2 construct: endogenous in cells; host or cells: MDCK cell homogenate
T2 sequence (A0A8I3MXG6 1-394): T1 sequence (A0A8I3MXG6 1-394)
Protocol: GCS Inhibition in MDCK Cell Homogenates (Lysate IC50, Table 1)
IC50 values for new compounds of the invention were determined as reported in Shayman J. A., Abe A. 2000. Glucosylceramide synthase: assay and properties. Methods Enzymol.311: 42-49.

Compound | IC50 (GCS in MDCKII cells) [nM] | IC50 [1] [nM]
2-(2,3-dihydro-1H-inden-2-yl)-N-((1R,2R)-1-hydroxy-1-(6-methoxypyridin-3-yl)-3-(pyrrolidin-1-yl)propan-2-yl)acetamide [Example 1] | > 1000 | > 1000
O=C(CC1Cc2ccccc2C1)N[C@H](CN1CCCC1)[C@H](O)c1ccc(OC(F)(F)F)cn1 (racemic) [Example 5, 2-(2,3-dihydro-1H-inden-2-yl)-N-((1S,2R)-1-hydroxy-3-(pyrrolidin-1-yl)-1-(5-(trifluoromethoxy)pyridin-2-yl)propan-2-yl)acetamide] | 6.5 | 249
O=C(CC1Cc2ccccc2C1)N[C@@H](CN1CCCC1)[C@@H](O)c1cc(Cl)ccn1 (stereo in doubt) [Example 26] | – | > 2000
COc1cccc([C@@H](O)[C@@H](CN2CCCC2)NC(=O)CC2Cc3ccccc3C2)n1 [Example 3, 2-(2,3-dihydro-1H-inden-2-yl)-N-((1S,2R)-1-hydroxy-1-(6-methoxypyridin-2-yl)-3-(pyrrolidin-1-yl)propan-2-yl)acetamide] | 30.5 | 198
CC(C)(C)Oc1ccc([C@@H](O)[C@@H](CN2CCCC2)NC(=O)CC2Cc3ccccc3C2)nc1 [Example 7, N-((1S,2R)-1-(5-(tert-butoxy)pyridin-2-yl)-1-hydroxy-3-(pyrrolidin-1-yl)propan-2-yl)-2-(2,3-dihydro-1H-inden-2-yl)acetamide] | 7.9 | 16.3
COc1cncc([C@@H](O)[C@@H](CN2CCCC2)NC(=O)CC2Cc3ccccc3C2)c1 [Example 9, 2-(2,3-dihydro-1H-inden-2-yl)-N-((1R,2R)-1-hydroxy-1-(5-methoxypyridin-3-yl)-3-(pyrrolidin-1-yl)propan-2-yl)acetamide] | > 1000 | > 5000
COc1ccc([C@H](O)[C@H](CN2CCCC2)NC(=O)CC2Cc3ccccc3C2)nc1 [Example 11, 2-(2,3-dihydro-1H-inden-2-yl)-N-((1R,2S)-1-hydroxy-1-(5-methoxypyridin-2-yl)-3-(pyrrolidin-1-yl)propan-2-yl)acetamide] | – | > 2000
COc1ccnc([C@@H](O)[C@@H](CN2CCCC2)NC(=O)CC2Cc3ccccc3C2)c1 [Example 12, 2-(2,3-dihydro-1H-inden-2-yl)-N-((1S,2R)-1-hydroxy-1-(4-methoxypyridin-2-yl)-3-(pyrrolidin-1-yl)propan-2-yl)acetamide] | 79.5 | 24900
O=C(CC1Cc2ccccc2C1)N[C@H](CN1CCCC1)[C@H](O)c1cccnc1 [Example 13, 2-(2,3-dihydro-1H-inden-2-yl)-N-((1R,2R)-1-hydroxy-1-(pyridin-3-yl)-3-(pyrrolidin-1-yl)propan-2-yl)acetamide] | 594 | 182
COc1cccnc1[C@@H](O)[C@@H](CN1CCCC1)NC(=O)CC1Cc2ccccc2C1 [Example 14, 2-(2,3-dihydro-1H-inden-2-yl)-N-((1S,2R)-1-hydroxy-1-(3-methoxypyridin-2-yl)-3-(pyrrolidin-1-yl)propan-2-yl)acetamide] | 444 | > 2000
COc1ccc([C@@H](O)[C@@H](CN2CCC(C)(C)C2)NC(=O)CC2Cc3ccccc3C2)nc1 [Example 16, 2-(2,3-dihydro-1H-inden-2-yl)-N-((1S,2R)-3-(3,3-dimethylpyrrolidin-1-yl)-1-hydroxy-1-(5-methoxypyridin-2-yl)propan-2-yl)acetamide] | > 1000 | > 2000
CC(C)(C)Oc1ccc([C@H](O)[C@H](CN2CCCC2)NC(=O)CC2Cc3ccccc3C2)nc1 [Example 18, N-((1R,2S)-1-(5-(tert-butoxy)pyridin-2-yl)-1-hydroxy-3-(pyrrolidin-1-yl)propan-2-yl)-2-(2,3-dihydro-1H-inden-2-yl)acetamide] | – | > 2000
O=C(CC1Cc2ccccc2C1)N[C@@H](CN1CCCC1)[C@@H](O)c1ccc(OC(F)(F)F)cn1 [Example 22, 2-(2,3-dihydro-1H-inden-2-yl)-N-((1R,2S)-1-hydroxy-3-(pyrrolidin-1-yl)-1-(5-(trifluoromethoxy)pyridin-2-yl)propan-2-yl)acetamide] | – | > 1000
O=C(CC1Cc2ccccc2C1)N[C@H](CN1CCCC1)[C@H](O)c1ccnc(Cl)c1 [Example 27, N-((1R,2R)-1-(2-chloropyridin-4-yl)-1-hydroxy-3-(pyrrolidin-1-yl)propan-2-yl)-2-(2,3-dihydro-1H-inden-2-yl)acetamide] | 66.6 | –

The remaining compounds from weak to strong by IC50 [1], led by results:

IC50 (GCS in MDCKII cells) [nM] | IC50 [1] [nM] | Compound
16.9 | 152 | O=C(CC1Cc2ccccc2C1)N[C@H](CN1CCCC1)[C@H](O)c1ccccn1 [Example 4, 2-(2,3-dihydro-1H-inden-2-yl)-N-((1S,2R)-1-hydroxy-1-(pyridin-2-yl)-3-(pyrrolidin-1-yl)propan-2-yl)acetamide]
61 | 131 | O=C(CC1Cc2ccccc2C1)N[C@H](CN1CCCC1)[C@H](O)c1cccc(Cl)n1 [Example 20, N-((1S,2R)-1-(6-chloropyridin-2-yl)-1-hydroxy-3-(pyrrolidin-1-yl)propan-2-yl)-2-(2,3-dihydro-1H-inden-2-yl)acetamide]
13.9 | 82 | COc1ccc([C@@H](O)[C@@H](CN2CC[C@@H](F)C2)NC(=O)CC2Cc3ccccc3C2)nc1 [Example 19, 2-(2,3-dihydro-1H-inden-2-yl)-N-((1S,2R)-3-((R)-3-fluoropyrrolidin-1-yl)-1-hydroxy-1-(5-methoxypyridin-2-yl)propan-2-yl)acetamide]
94.6 | 56 | COc1cc([C@@H](O)[C@@H](CN2CCCC2)NC(=O)CC2Cc3ccccc3C2)ccn1 [Example 8, 2-(2,3-dihydro-1H-inden-2-yl)-N-((1R,2R)-1-hydroxy-1-(2-methoxypyridin-4-yl)-3-(pyrrolidin-1-yl)propan-2-yl)acetamide]
15.8 | 37.4 | COc1ccc([C@@H](O)[C@@H](CN2CCCC2)N(C)C(=O)CC2Cc3ccccc3C2)nc1 [Example 10]
6.8 | 24.8 | COc1ccc(C(O)[C@@H](CN2CCCC2)NC(=O)CC2Cc3ccccc3C2)nc1 (stereo in doubt) [Example 2, 2-(2,3-dihydro-1H-inden-2-yl)-N-((1R,2R)-1-hydroxy-1-(5-methoxypyridin-2-yl)-3-(pyrrolidin-1-yl)propan-2-yl)acetamide]
2.4 | 21.7 | O=C(CC1Cc2ccccc2C1)N[C@H](CN1CCCC1)[C@H](O)c1ccc(OCC(F)(F)F)cn1 [Example 6, 2-(2,3-dihydro-1H-inden-2-yl)-N-((1S,2R)-1-hydroxy-3-(pyrrolidin-1-yl)-1-(5-(2,2,2-trifluoroethoxy)pyridin-2-yl)propan-2-yl)acetamide]
9.3 | 21.3 | COc1ccc([C@@H](O)[C@@H](CN2CC3CC3C2)NC(=O)CC2Cc3ccccc3C2)nc1 (stereo partly drawn) [Example 15, N-((1S,2R)-3-(3-azabicyclo[3.1.0]hexan-3-yl)-1-hydroxy-1-(5-methoxypyridin-2-yl)propan-2-yl)-2-(2,3-dihydro-1H-inden-2-yl)acetamide]
– | 16.1 | O=C(CC1Cc2ccccc2C1)N[C@H](CN1CCCC1)[C@H](O)c1cc(Cl)ccn1 (stereo in doubt) [Example 23, (+/-)-N-(1-(4-chloropyridin-2-yl)-1-hydroxy-3-(pyrrolidin-1-yl)propan-2-yl)-2-(2,3-dihydro-1H-inden-2-yl)acetamide]

Source: patent publication US20230212123A1, “Pyridine Inhibitors of Glucosylceramide Synthase and Therapeutic Methods Using the Same” (THE REGENTS OF THE UNIVERSITY OF MICHIGAN, priority 2020, published 2023)
